Assay results as given in article PMC5242521 (PLoS ONE, 2017).
“And” between values parts separate entries of the source, which are not always exact repeats. Identical values can stand only once.

How the values were obtained:
OCT1 [1] = molecular target: T1, OCT1 (Homo sapiens, UniProt O15245); assay: OCT1 activity: DAPI accumulation in HEK-OCT1 cells; conditions: for effect on OCT1 activity: pyrethroid 100 μM, DAPI; for inhibition at 100 μM: human
T1 sequence (O15245 1-554): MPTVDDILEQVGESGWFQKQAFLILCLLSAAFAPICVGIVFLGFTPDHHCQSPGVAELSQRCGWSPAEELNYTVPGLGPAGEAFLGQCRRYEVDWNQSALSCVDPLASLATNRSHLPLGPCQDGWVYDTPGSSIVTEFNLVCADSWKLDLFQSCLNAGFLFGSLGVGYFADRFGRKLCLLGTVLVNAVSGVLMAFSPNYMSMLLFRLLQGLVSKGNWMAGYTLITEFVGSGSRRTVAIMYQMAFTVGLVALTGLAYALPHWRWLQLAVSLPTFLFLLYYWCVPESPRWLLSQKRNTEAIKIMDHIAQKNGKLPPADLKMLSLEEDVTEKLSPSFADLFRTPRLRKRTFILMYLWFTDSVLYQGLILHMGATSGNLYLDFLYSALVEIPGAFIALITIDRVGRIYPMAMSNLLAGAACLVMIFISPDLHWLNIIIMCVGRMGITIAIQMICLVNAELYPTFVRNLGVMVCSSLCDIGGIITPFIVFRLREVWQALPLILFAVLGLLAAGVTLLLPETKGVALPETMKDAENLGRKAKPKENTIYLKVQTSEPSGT
Procedure: (§1) The effects of pyrethroids on activity of ABC and SLC transporters were determined through measuring cellular accumulation or retention of fluorescent or radiolabeled reference substrates for transporters, in the presence or absence of reference inhibitors, as previously described. The nature of cells and reference substrates and inhibitors used for transport assays are summarized in S3 Table.
(§2) The nature of substrates and reference inhibitors and the incubation times with substrates, that varied according to the transporter, were selected in agreement with previous studies and are indicated in S3 Table. The total incubation volume with substrates was 200 μL/well. […] An aliquot of cell lysate (5 μL) was then taken for determining cellular protein content by the Bradford method.
(§3) Intracellular concentrations of reference substrates were initially expressed as fluorescence arbitrary units (for fluorescent dye substrates) or as moles (for radiolabeled substrates) and normalized to cellular protein content, determined by the Bradford method. They were finally used for calculating percentage of transporter activity, according to the following equations [41, 45]: %ABCtransporter activity=([Substrateref inh]-[Substratepyrethroid])×100/([Substrateref inh]-[Substratecontrol]) (1) %SLC transporter activity=([Substratepyrethroid]-[Substratref inh])×100/([Substratecontrol]-[Substrateref inh]) (2) with [Substratepyrethroid] = cellular concentration of reference substrate in the presence of pyrethroid, [Substrateref inh] = cellular concentration of reference substrate in the presence of reference inhibitor and [Substratecontrol] = cellular concentration of reference substrate in control cells not exposed to pyrethroid or reference inhibitor.
(§4) The initial tested concentration of pyrethroids was 100 μM. […] Such concentrations were calculated using GraphPad Prism software (GraphPad Software, La Jolla, CA), through nonlinear regression based on the four parameter logistic function using the following equations: […]

OCT2 = molecular target: T2, OCT2 (Homo sapiens, UniProt O15244); assay: OCT2 activity: rhodamine 123 accumulation in HEK-OCT2 cells; conditions: human
T2 sequence (O15244 1-555): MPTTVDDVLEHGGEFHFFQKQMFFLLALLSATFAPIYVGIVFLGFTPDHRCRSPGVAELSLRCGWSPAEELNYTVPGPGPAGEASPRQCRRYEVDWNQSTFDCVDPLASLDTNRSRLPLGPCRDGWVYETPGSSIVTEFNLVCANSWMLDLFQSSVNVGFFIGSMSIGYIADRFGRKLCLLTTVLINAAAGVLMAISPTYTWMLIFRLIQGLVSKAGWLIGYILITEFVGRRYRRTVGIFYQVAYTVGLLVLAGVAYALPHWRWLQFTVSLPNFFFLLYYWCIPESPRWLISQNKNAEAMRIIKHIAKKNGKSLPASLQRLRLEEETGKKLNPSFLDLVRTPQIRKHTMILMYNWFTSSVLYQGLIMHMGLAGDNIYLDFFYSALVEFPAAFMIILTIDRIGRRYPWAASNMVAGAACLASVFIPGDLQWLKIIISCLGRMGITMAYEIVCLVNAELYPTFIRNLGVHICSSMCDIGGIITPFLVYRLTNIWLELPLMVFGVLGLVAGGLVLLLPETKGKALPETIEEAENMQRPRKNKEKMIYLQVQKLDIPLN
Procedure: as §1, §2, §3, §4

OCT1 [2] = molecular target: T1, OCT1; assay: Trans-stimulation assay of TEA uptake in OCT1-transfected HEK293 cells; type: cell-based; conditions: pre-loading 60 min with 100 μM pyrethroid or 2 mM unlabeled TEA; HEK-OCT1 cells
Procedure: Trans-stimulation assays were performed as previously described. Briefly, OCT1-transfected HEK293 cells were first preloaded with 2 mM unlabeled TEA or 100 μM pyrethroid for 60 min at 37°c in the transport assay medium described above. After washing twice with PBS, cells were next re-incubated in transport assay medium containing 29 μM [1-^14C]-TEA for 5 min at 37°C. After washing twice with PBS, cells were lysed in distilled water and intracellular accumulation of [1-^14C]-TEA was then determined by scintillation counting.
Intracellular accumulation of TEA was then determined by scintillation counting. […] After washing, cells were next re-incubated with 29 μM [1-^14C]-TEA for 5 min at 37°C. Intracellular accumulation of [1-^14C]-TEA was then determined by scintillation counting.

[3] = set-up: method as in PMID 12708229; conditions: human subjects environmentally exposed; ref [70]; cited from earlier work
P-gp [4] = molecular target: P-gp (Homo sapiens, UniProt P08183); assay: P-gp activity: rhodamine 123 accumulation in MCF7R cells; conditions: pyrethroid 100 μM
Chain of P-gp (Homo sapiens, UniProt P08183) (P08183 whole entry): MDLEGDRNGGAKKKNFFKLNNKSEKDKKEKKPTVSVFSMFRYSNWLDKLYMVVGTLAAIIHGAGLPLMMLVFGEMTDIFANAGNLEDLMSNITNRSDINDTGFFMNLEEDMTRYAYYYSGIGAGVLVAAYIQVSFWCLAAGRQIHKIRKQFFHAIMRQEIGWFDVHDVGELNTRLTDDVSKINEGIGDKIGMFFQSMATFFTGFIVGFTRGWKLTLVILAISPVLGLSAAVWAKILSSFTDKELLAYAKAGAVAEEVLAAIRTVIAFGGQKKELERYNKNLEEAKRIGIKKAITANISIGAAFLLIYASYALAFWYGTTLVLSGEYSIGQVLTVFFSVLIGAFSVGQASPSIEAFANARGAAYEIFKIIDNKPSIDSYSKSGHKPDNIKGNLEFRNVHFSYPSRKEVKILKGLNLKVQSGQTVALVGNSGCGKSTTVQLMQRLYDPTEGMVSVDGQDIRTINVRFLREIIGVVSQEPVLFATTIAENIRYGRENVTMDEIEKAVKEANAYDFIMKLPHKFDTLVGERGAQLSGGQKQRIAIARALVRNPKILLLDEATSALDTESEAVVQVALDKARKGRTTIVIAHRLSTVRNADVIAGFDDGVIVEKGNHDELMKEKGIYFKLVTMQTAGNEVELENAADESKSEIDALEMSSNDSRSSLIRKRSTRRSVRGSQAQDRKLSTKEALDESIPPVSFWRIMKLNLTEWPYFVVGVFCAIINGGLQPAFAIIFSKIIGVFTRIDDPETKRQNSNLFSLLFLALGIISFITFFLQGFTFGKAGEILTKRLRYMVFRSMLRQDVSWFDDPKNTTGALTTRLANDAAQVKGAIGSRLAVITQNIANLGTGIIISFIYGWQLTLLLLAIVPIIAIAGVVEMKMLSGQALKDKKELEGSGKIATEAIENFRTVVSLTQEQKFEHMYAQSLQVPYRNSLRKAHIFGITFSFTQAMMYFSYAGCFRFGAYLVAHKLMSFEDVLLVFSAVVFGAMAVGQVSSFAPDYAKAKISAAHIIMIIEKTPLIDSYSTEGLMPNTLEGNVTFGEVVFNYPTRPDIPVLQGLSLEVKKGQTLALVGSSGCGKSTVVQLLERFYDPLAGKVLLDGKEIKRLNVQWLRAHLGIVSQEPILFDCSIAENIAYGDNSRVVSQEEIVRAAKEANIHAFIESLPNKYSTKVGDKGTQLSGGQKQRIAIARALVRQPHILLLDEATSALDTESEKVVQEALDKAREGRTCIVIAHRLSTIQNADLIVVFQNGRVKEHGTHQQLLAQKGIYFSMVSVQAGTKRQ
Procedure: as §1
(§5) For accumulation assays (performed for all transporters, excepted BCRP), transporter-expressing cells usually cultured in 48-well plates were first incubated at 37°C with reference substrates in the absence (control) or presence of pyrethroids or reference inhibitors, in a well-defined transport assay medium, consisting of 136 mM NaCl, 5.3 mM KCl, 1.1mM KH2PO4, 0.8 mM MgSO4, 1.8 mM CaCl2, 10 mM HEPES, 11 mM D-glucose and adjusted to pH = 7.4 (excepted for MATE transporter assays, for which pH was set to 8.4). The nature of substrates and reference inhibitors and the incubation times with substrates, that varied according to the transporter, were selected in agreement with previous studies and are indicated in S3 Table. The total incubation volume with substrates was 200 μL/well. After washing twice in phosphate-buffered saline (PBS) (200 μL/well/washing), cells were lysed in distilled water (155 μL/well). An aliquot of cell lysate (5 μL) was then taken for determining cellular protein content by the Bradford method. The rest of lysate (150 μL/well) was used for measuring intracellular accumulation of reference substrates by scintillation counting or spectrofluorimetry using a SpectraMax Gemini SX spectrofluorometer (Molecular Devices, Sunnyvale, CA, USA) (excitation and emission wavelengths were 485 and 535 nm, respectively, for rhodamine 123 and fluorescein, and 355 and 460 nm, respectively, for DAPI).
as §3, §4

P-gp [5] = conditions: ref [26], [27]; cited from earlier work
OAT3 = molecular target: T3, OAT3 (Homo sapiens, UniProt Q8TCC7); assay: OAT3 activity: fluorescein accumulation in HEK-OAT3 cells; conditions: human, pH 7.4
T3 sequence (Q8TCC7 1-542): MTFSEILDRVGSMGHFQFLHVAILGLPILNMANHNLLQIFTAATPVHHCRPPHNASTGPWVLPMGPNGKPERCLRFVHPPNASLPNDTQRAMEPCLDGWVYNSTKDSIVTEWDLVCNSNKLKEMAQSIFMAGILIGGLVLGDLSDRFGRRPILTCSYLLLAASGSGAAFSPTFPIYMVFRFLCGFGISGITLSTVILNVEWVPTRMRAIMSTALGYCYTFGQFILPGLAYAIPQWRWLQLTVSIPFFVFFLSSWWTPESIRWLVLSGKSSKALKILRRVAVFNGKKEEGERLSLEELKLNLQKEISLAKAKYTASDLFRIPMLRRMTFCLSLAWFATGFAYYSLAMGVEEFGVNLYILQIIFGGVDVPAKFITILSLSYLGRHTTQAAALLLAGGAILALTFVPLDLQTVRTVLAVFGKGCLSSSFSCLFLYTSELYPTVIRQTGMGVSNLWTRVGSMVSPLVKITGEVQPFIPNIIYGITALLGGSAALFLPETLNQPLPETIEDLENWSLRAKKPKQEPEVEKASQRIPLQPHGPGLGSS
Procedure: as §1, §5, §3, §4

OAT1 = molecular target: T4, OAT1 (Homo sapiens, UniProt Q4U2R8); assay: OAT1 activity: fluorescein accumulation in HEK-OAT1 cells; type: cell-based; conditions: human, pH 7.4; pyrethroid 100 μM; HEK-OAT1 cells, fluorescein
T4 construct: host or cells: HEK293
T4 sequence (Q4U2R8 1-563): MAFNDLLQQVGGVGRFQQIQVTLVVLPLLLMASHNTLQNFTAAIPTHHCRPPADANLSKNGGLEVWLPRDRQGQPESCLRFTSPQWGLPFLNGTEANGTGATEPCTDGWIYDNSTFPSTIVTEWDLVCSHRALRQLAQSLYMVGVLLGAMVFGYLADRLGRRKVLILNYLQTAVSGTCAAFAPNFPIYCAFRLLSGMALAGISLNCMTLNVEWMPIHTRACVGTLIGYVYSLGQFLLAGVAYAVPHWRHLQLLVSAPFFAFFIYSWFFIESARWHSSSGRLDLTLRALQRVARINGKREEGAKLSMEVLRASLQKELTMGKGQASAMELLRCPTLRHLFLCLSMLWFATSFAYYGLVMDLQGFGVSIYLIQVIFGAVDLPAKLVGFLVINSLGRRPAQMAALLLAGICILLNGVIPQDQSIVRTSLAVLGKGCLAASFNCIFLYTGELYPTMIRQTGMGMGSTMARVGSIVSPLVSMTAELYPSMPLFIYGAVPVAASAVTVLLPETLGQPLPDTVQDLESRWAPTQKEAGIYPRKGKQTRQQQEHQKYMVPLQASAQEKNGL
Procedure: The effects of pyrethroids on activity of ABC and SLC transporters were determined through measuring cellular accumulation or retention of fluorescent or radiolabeled reference substrates for transporters, in the presence or absence of reference inhibitors, as previously described [41].
The total incubation volume with substrates was 200 μL/well. […] An aliquot of cell lysate (5 μL) was then taken for determining cellular protein content by the Bradford method [44].
Intracellular concentrations of reference substrates were initially expressed as fluorescence arbitrary units (for fluorescent dye substrates) or as moles (for radiolabeled substrates) and normalized to cellular protein content, determined by the Bradford method [44]. They were finally used for calculating percentage of transporter activity, according to the following equations [41, 45]: %ABCtransporter activity=([Substrateref inh]-[Substratepyrethroid])×100/([Substrateref inh]-[Substratecontrol]) (1) %SLC transporter activity=([Substratepyrethroid]-[Substratref inh])×100/([Substratecontrol]-[Substrateref inh]) (2) with [Substratepyrethroid] = cellular concentration of reference substrate in the presence of pyrethroid, [Substrateref inh] = cellular concentration of reference substrate in the presence of reference inhibitor and [Substratecontrol] = cellular concentration of reference substrate in control cells not exposed to pyrethroid or reference inhibitor.

[6] = HEK-OCT2 cells, pH 7.4, probe rhodamine 123

For `Cc1c(COC(=O)[C@@H]2[C@H](/C=C(\Cl)C(F)(F)F)C2(C)C)cccc1-c1ccccc1` (racemic) [bifenthrin], the “effect on OCT1 activity” value (OCT1 [1]) was “failed to significantly alter”.

In the case of `Cc1c(F)c(F)c(COC(=O)[C@@H]2[C@H](/C=C(\Cl)C(F)(F)F)C2(C)C)c(F)c1F` (racemic) [tefluthrin], the inhibition at 100 μM (OCT1 [1]; pH 7.4) was 30.1 to 48.8% and the inhibition at 100 μM (OCT2; pH 7.4) was ~25%.

Compound `CC1(C)[C@H](C(=O)O[C@H](C#N)c2cccc(Oc3ccccc3)c2)[C@@H]1/C=C(\Cl)C(F)(F)F` (racemic) [λ-cyhalothrin] has an inhibition at 100 μM (OCT1 [1]; pH 7.4) of 30.1 to 48.8%.

In the case of `CC[N+](CC)(CC)CC` [TEA, tetra-ethylammonium bromide, reference compound], the “effect of pre-loading on radiolabeled TEA uptake (trans-stimulation assay)” value (OCT1 [2]) was “trans-stimulation”.

With `CC1(C)[C@H](C(=O)OCc2cccc(Oc3ccccc3)c2)[C@@H]1C=C(Cl)Cl` [cis-permethrin] the “effect on OCT1 activity” value (OCT1 [1]) was “failed to significantly alter”.

In the case of `CC1(C)C(C=C(Cl)Cl)C1C(=O)OC(C#N)c1ccc(F)c(Oc2ccccc2)c1` (centres unmarked) [cyfluthrin], the blood concentration [3] is listed as < 5 μg/L and < 12.8 nM.

In the case of `CC1(C)C(C=C(Cl)Cl)C1C(=O)OC(C#N)c1cccc(Oc2ccccc2)c1` (centres unmarked) [cypermethrin], the blood concentration [3] is listed as < 5 μg/L and < 12.8 nM and the “effect on P-gp activity” value (P-gp [4]) is listed as “did not alter”.

Compound `CC1(C)C(C(=O)OC(C#N)c2cccc(Oc3ccccc3)c2)C1(C)C` (centres unmarked) [fenpropathrin] has an inhibition at 100 μM (OCT1 [1]; pH 7.4) of 30.1 to 48.8%.

For `CC(C)[C@H](Nc1ccc(C(F)(F)F)cc1Cl)C(=O)OC(C#N)c1cccc(Oc2ccccc2)c1` (some centres unmarked) [fluvalinate], the “effect on P-gp activity or ATPase activity” value (P-gp [5]) is listed as “inhibit” and the “effect on P-gp activity” value (P-gp [4]) is listed as “did not alter”.

Compound `CC1(C)[C@H](C=C(Cl)Cl)[C@H]1C(=O)OCc1cccc(Oc2ccccc2)c1` [trans-permethrin] has an inhibition at 100 μM (OCT1 [1]; pH 7.4) of 30.1 to 48.8% and an inhibition at 100 μM (OCT2; [6]) of ~25%.

With `CC1(C)[C@H](C=C(Cl)Cl)[C@H]1C(=O)O[C@@H](C#N)c1cccc(Oc2ccccc2)c1` [β-cypermethrin] the inhibition at 100 μM (OCT1 [1]; HEK-OCT1 cells, pH 7.4, probe DAPI) was 30.1% and the inhibition at 100 μM (OCT2; [6]) was ~25%.

With `CC(C)[C@@H](Nc1ccc(C(F)(F)F)cc1Cl)C(=O)OC(C#N)c1cccc(Oc2ccccc2)c1` (some centres unmarked) [τ-fluvalinate] the inhibition at 100 μM (OAT3) was 15.6%, the “effect on OCT1 activity” value (OCT1 [1]) was “failed to significantly alter” and the inhibition at 100 μM (OAT1) was 42.8%. It also gave an inhibition at 100 μM (OCT2; pH 7.4) of ~25%.
